System: LNCaP prostate cancer cell
Test: LNCaP cell viability (CellTiter-Glo)
Type: cell-based
Conditions: 3 days, 3-fold serial dilution from 10 μM; FIG. 4
Method: LNCaP cells seeded in 96-well plates were treated with 10 μM GNE-781 or selected bivalent compounds, i.e. P-001, P-002, and P-019, following a 12-point 3-fold serial dilution. Three days after treatment, cell viability was determined using the CellTiter-Glo kit (Promega) following manufacturer's instructions. Cell viability was normalized to the mean values of 3 replicates of untreated cells. Dose-dependent response was analyzed following the least-squares non-linear regression method using the GraphPad Prism 5.0 software.
LNCaP (clone FGC), 22RV1 and other cells were cultured at 37° C. with 5% CO 2 in RPMI 1640 Medium supplemented with 10% fetal bovine serum. Cells were authenticated using the short tandem repeat (STR) assays. Mycoplasma test results were negative.
Cells were seeded at a density of 5000 cells per well in 96-well assay plates and treated with test compounds following a 12-point 3-fold serial dilution. Three days later, cell viability was determined using the CellTiter-Glo assay kit according to the manufactureR's instructions. The dose-response curves were determined and IC50 values were calculated using the GraphPad Prism software following a nonlinear regression (least squares fit) method.

Row | Structure (SMILES) | viability of LNCaP cells
1 | CNC(=O)N1CCc2c(c(N3CCCc4cc(-c5cnn(CC(=O)NCCCCCNc6ccc7c(c6)C(=O)N(C6CCC(=O)NC6=O)C7=O)c5)c(C(F)F)cc43)nn2C2CCOCC2)C1 (stereo not shown) [P-019, 3-(7-(difluoromethyl)-6-(1-(2-((5-((2-(2,6-dioxopiperidin-3-yl)-1,3-dioxoisoindolin-5-yl)amino)pentyl)amino)-2-oxoethyl)-1H-pyrazol-4-yl)-3,4-dihydroquinolin-1(2H)-yl)-N-methyl-1-(tetrahydro-2H-pyran-4-yl)-1,4,6,7-tetrahydro-5H-pyrazolo[4,3-c]pyridine-5-carboxamide] | dose-dependently suppressed viability of LNCaP cells
2 | CNC(=O)N1CCc2c(c(N3CCCc4cc(-c5cnn(C)c5)c(C(F)F)cc43)nn2C2CCN(C(=O)CCNc3ccc4c(c3)C(=O)N(C3CCC(=O)NC3=O)C4=O)CC2)C1 (stereo not shown) [P-002, 3-(7-(difluoromethyl)-6-(1-methyl-1H-pyrazol-4-yl)-3,4-dihydroquinolin-1(2H)-yl)-1-(1-(3-((2-(2,6-dioxopiperidin-3-yl)-1,3-dioxoisoindolin-5-yl)amino)propanoyl)piperidin-4-yl)-N-methyl-1,4,6,7-tetrahydro-5H-pyrazolo[4,3-c]pyridine-5-carboxamide] | dose-dependently suppressed viability of LNCaP cells

Same assay, conditions: Homo sapiens, 72 h; LNCaP cell viability, 3 days, CellTiter-Glo; Table 3

Row | IC50 [nM] | Structure (SMILES)
3 | > 10000 | CNC(=O)N1CCc2c(c(N3CCCc4cc(-c5cnn(CC(=O)NCCOCCOCCOCCOCCOCCC(=O)N[C@H](C(=O)N6C[C@H](O)C[C@H]6C(=O)NCc6ccc(-c7scnc7C)cc6)C(C)(C)C)c5)c(C(F)F)cc43)nn2C2CCOCC2)C1 [P-082]
4 | > 1000 | CC(=O)N1CCc2c(c(N3CCCc4cc(-c5cnn(C)c5)c(C(F)F)cc43)nn2C2CCN(CCCNC(=O)CNc3cccc4c3C(=O)N(C3CCC(=O)NC3=O)C4=O)CC2)C1 (stereo not shown) [P-124, N-(3-(4-(5-acetyl-3-(7-(difluoromethyl)-6-(1-methyl-1H-pyrazol-4-yl)-3,4-dihydroquinolin-1(2H)-yl)-4,5,6,7-tetrahydro-1H-pyrazolo[4,3-c]pyridin-1-yl)piperidin-1-yl)propyl)-2-((2-(2,6-dioxopiperidin-3-yl)-1,3-dioxoisoindolin-4-yl)amino)acetamide]

Same assay, conditions: Homo sapiens, 72 h; LNCaP cell viability, 3 days, CellTiter-Glo; Table 4

Row | Structure (SMILES) | IC50 [nM]
5 | CC(=O)N1CCc2c(c(N3CCCc4cc(-c5cnn(C)c5)c(C(F)F)cc43)nn2C2CCN(C(=O)CN3CCN(CC#Cc4cccc5c4n(C)c(=O)n5C4CCC(=O)NC4=O)CC3)CC2)C1 (stereo not shown) [P-226, 3-(4-(3-(4-(2-(4-(5-Acetyl-3-(7-(difluoromethyl)-6-(1-methyl-1H-pyrazol-4-yl)-3,4-dihydroquinolin-1(2H)-yl)-4,5,6,7-tetrahydro-1H-pyrazolo[4,3-c]pyridin-1-yl)piperidin-1-yl)-2-oxoethyl)piperazin-1-yl)prop-1-yn-1-yl)-3-methyl-2-oxo-2,3-dihydro-1H-benzo[d]imidazol-1-yl)piperidine-2,6-dione] | 398
6 | CC(=O)N1CCc2c(c(N3CCCc4cc(-c5cnn(C)c5)c(C(F)F)cc43)nn2C2CCN(C(=O)CCCN3CCC(COc4ccc5c(c4)n(C)c(=O)n5C4CCC(=O)NC4=O)CC3)CC2)C1 (stereo not shown) [P-206] | > 500
7 | CC(=O)N1CCc2c(c(N3CCCc4cc(-c5cnn(C)c5)c(C(F)F)cc43)nn2C2CCN(CCN3CCOC(CNc4cccc5c4CN(C4CCC(=O)NC4=O)C5=O)C3)CC2)C1 (stereo not shown) [P-199, 3-(4-(((4-(2-(4-(5-acetyl-3-(7-(difluoromethyl)-6-(1-methyl-1H-pyrazol-4-yl)-3,4-dihydroquinolin-1(2H)-yl)-4,5,6,7-tetrahydro-1H-pyrazolo[4,3-c]pyridin-1-yl)piperidin-1-yl)ethyl)morpholin-2-yl)methyl)amino)-1-oxoisoindolin-2-yl)piperidine-2,6-dione] | > 500
8 | CC(=O)N1CCc2c(c(N3CCCc4cc(-c5cnn(C)c5)c(C(F)F)cc43)nn2C2CCN(CCN3CCC(COc4cccc5c4n(C)c(=O)n5C4CCC(=O)NC4=O)CC3)CC2)C1 (stereo not shown) [P-255, 3-(4-((1-(2-(4-(5-Acetyl-3-(7-(difluoromethyl)-6-(1-methyl-1H-pyrazol-4-yl)-3,4-dihydroquinolin-1(2H)-yl)-4,5,6,7-tetrahydro-1H-pyrazolo[4,3-c]pyridin-1-yl)piperidin-1-yl)ethyl)piperidin-4-yl)methoxy)-3-methyl-2-oxo-2,3-dihydro-1H-benzo[d]imidazol-1-yl)piperidine-2,6-dione] | > 500

The remaining lines, values ahead:

Row | IC50 [nM] | Structure (SMILES)
9 | > 500 | CC(=O)N1CCc2c(c(N3CCCc4cc(-c5cnn(C)c5)c(C(F)F)cc43)nn2C2CCN(C(=O)CCN3CCC(COc4ccc5c(c4)n(C)c(=O)n5C4CCC(=O)NC4=O)CC3)CC2)C1 (stereo not shown) [P-203, 3-(5-((1-(3-(4-(5-acetyl-3-(7-(difluoromethyl)-6-(1-methyl-1H-pyrazol-4-yl)-3,4-dihydroquinolin-1(2H)-yl)-4,5,6,7-tetrahydro-1H-pyrazolo[4,3-c]pyridin-1-yl)piperidin-1-yl)-3-oxopropyl)piperidin-4-yl)methoxy)-3-methyl-2-oxo-2,3-dihydro-1H-benzo[d]imidazol-1-yl)piperidine-2,6-dione]
10 | > 500 | CC(=O)N1CCc2c(c(N3CCCc4cc(-c5cnn(C)c5)c(C(F)F)cc43)nn2C2CCN(C(=O)CCCN3CCN(CC(=O)Nc4cccc(NC5CCC(=O)NC5=O)c4)CC3)CC2)C1 (stereo not shown) [P-259, 2-(4-(4-(4-(5-acetyl-3-(7-(difluoromethyl)-6-(1-methyl-1H-pyrazol-4-yl)-3,4-dihydroquinolin-1(2H)-yl)-4,5,6,7-tetrahydro-1H-pyrazolo[4,3-c]pyridin-1-yl)piperidin-1-yl)-4-oxobutyl)piperazin-1-yl)-N-(3-((2,6-dioxopiperidin-3-yl)amino)phenyl)acetamide]
11 | > 500 | CC(=O)N1CCc2c(c(N3CCCc4cc(-c5cnn(C)c5)c(C(F)F)cc43)nn2C2CCN(C(=O)CCCCCCCC(=O)Nc3cccc(NC4CCC(=O)NC4=O)c3)CC2)C1 (stereo not shown) [P-263, 9-(4-(5-Acetyl-3-(7-(difluoromethyl)-6-(1-methyl-1H-pyrazol-4-yl)-3,4-dihydroquinolin-1(2H)-yl)-4,5,6,7-tetrahydro-1H-pyrazolo[4,3-c]pyridin-1-yl)piperidin-1-yl)-N-(3-((2,6-dioxopiperidin-3-yl)amino)phenyl)-9-oxononanamide]
12 | > 500 | CC(=O)N1CCc2c(c(N3CCCc4cc(-c5cnn(C)c5)c(C(F)F)cc43)nn2C2CCN(C(=O)CCC3CCN(CC(=O)Nc4cccc(NC5CCC(=O)NC5=O)c4)CC3)CC2)C1 (stereo not shown) [P-261, 2-(4-(3-(4-(5-acetyl-3-(7-(difluoromethyl)-6-(1-methyl-1H-pyrazol-4-yl)-3,4-dihydroquinolin-1(2H)-yl)-4,5,6,7-tetrahydro-1H-pyrazolo[4,3-c]pyridin-1-yl)piperidin-1-yl)-3-oxopropyl)piperidin-1-yl)-N-(3-((2,6-dioxopiperidin-3-yl)amino)phenyl)acetamide]
13 | > 500 | CC(=O)N1CCc2c(c(N3CCCc4cc(-c5cnn(C)c5)c(C(F)F)cc43)nn2C2CCN(C(=O)CC3CCN(CC(=O)Nc4cccc(NC5CCC(=O)NC5=O)c4)CC3)CC2)C1 (stereo not shown) [P-260, 2-(4-(2-(4-(5-acetyl-3-(7-(difluoromethyl)-6-(1-methyl-1H-pyrazol-4-yl)-3,4-dihydroquinolin-1(2H)-yl)-4,5,6,7-tetrahydro-1H-pyrazolo[4,3-c]pyridin-1-yl)piperidin-1-yl)-2-oxoethyl)piperidin-1-yl)-N-(3-((2,6-dioxopiperidin-3-yl)amino)phenyl)acetamide]
14 | 560 | CC(=O)N1CCc2c(c(N3CCCc4cc(-c5cnn(C)c5)c(C(F)F)cc43)nn2C2CCN(CCCCN3CCC(Cn4c(=O)n(C5CCC(=O)NC5=O)c5ccccc54)CC3)CC2)C1 (stereo not shown) [P-236, 3-(3-((1-(4-(4-(5-acetyl-3-(7-(difluoromethyl)-6-(1-methyl-1H-pyrazol-4-yl)-3,4-dihydroquinolin-1(2H)-yl)-4,5,6,7-tetrahydro-1H-pyrazolo[4,3-c]pyridin-1-yl)piperidin-1-yl)butyl)piperidin-4-yl)methyl)-2-oxo-2,3-dihydro-1H-benzo[d]imidazol-1-yl) piperidine-2,6-dione]
15 | > 500 | CC(=O)N1CCc2c(c(N3CCCc4cc(-c5cnn(C)c5)c(C(F)F)cc43)nn2C2CCN(C(=O)CCN3CCN(CC(=O)Nc4cccc(NC5CCC(=O)NC5=O)c4)CC3)CC2)C1 (stereo not shown) [P-258, 2-(4-(3-(4-(5-acetyl-3-(7-(difluoromethyl)-6-(1-methyl-1H-pyrazol-4-yl)-3,4-dihydroquinolin-1(2H)-yl)-4,5,6,7-tetrahydro-1H-pyrazolo[4,3-c]pyridin-1-yl)piperidin-1-yl)-3-oxopropyl)piperazin-1-yl)-N-(3-((2,6-dioxopiperidin-3-yl)amino)phenyl)acetamide]
16 | > 500 | CC(=O)N1CCc2c(c(N3CCCc4cc(-c5cnn(C)c5)c(C(F)F)cc43)nn2C2CCN(CCN3CCNC(COc4cccc5c4C(=O)N(C4CCC(=O)NC4=O)C5=O)C3)CC2)C1 (stereo not shown) [P-197, 4-((4-(2-(4-(5-acetyl-3-(7-(difluoromethyl)-6-(1-methyl-1H-pyrazol-4-yl)-3,4-dihydroquinolin-1(2H)-yl)-4,5,6,7-tetrahydro-1H-pyrazolo[4,3-c]pyridin-1-yl)piperidin-1-yl)ethyl)piperazin-2-yl)methoxy)-2-(2,6-dioxopiperidin-3-yl)isoindoline-1,3-dione]
